Reference: patent US20070238711A1, “Combination Therapy with Glatiramer Acetate and Minocycline for the Treatment of Multiple Sclerosis” (priority 2004, published 2007)
Several values for one entry are separate records, joined by “and”; a condition that tells them apart may be missing. Equal entries are not always repeated.

What was measured:
severe EAE = test: Experiment 1: low doses of glatiramer acetate and minocycline on severe EAE (MOG-induced); type: in vivo, C57/BL6 mice; design: key to EAE clinical score, individual mouse / EAE clinical score, group average (ave): composite score 0 = no symptoms, 14 = fully quadriplegic, 15 = death; key to Sum of Scores, individual mouse / Sum of Scores, group average (ave): sum of daily clinical scores (0–15 scale) over the experiment; conditions: for effect on clinical scores of EAE: severe EAE, sub-optimal doses, FIG. 2; for Sum of Scores, group average (ave) / Sum of Scores, individual mouse: sum of daily clinical scores over the entire experiment; for effect on disease severity: summary of Experiments 1-2, sub-optimal doses
Protocol: Intraperitoneal pertussis toxin was given on the day of MOG administration and also 2 days after. FIG. 1 presents a layout of the experimental design. Minocycline was administered intraperitoneally at a sub-optimal dose (25 mg/kg) when the first mouse in the entire experiment developed signs of EAE (See FIG. 1). Minocycline was administered daily until mice were sacrificed. […] Thus, we have developed a new system in order to better differentiate functional outcomes. […] For the tail: 0—no symptoms […] For each of the hind limbs or fore limbs, each assessed separately: 0—no symptoms […] Thus, a fully paralysed quadriplegic animal would attain a score of 14. […] Death is automatically given a score of 15. Another parameter that we have employed is the “sum of scores”. This refers to the addition of each daily clinical score over the entire period of the experiment. This is a reflection of the total burden of disease, and takes into account variations in onset of disease, and the daily scores.

moderate EAE = test: Experiment 2: low doses of glatiramer acetate and minocycline on moderate EAE; type: in vivo, C57/BL6 mice; conditions: sub-optimal doses, FIG. 4
Source text: The protocol of Experiment 1 was followed. […] The number of mice in each group was as follows: 8 in the vehicle group, 11 in the minocycline group, 10 in the Copaxone® group, and 9 in the combination group.

EAE [1] = test: Experiment 3: high doses of glatiramer acetate and minocycline on EAE; type: in vivo, C57/BL6 mice; conditions: Copaxone 375 μg, minocycline 37.5 mg/kg
Protocol: The effects of all treatments versus the control are analyzed histologically (hematoxylin-eosin and Luxol fast blue for evidence of inflammation and demyelination, respectively). Cellular infiltrates are characterized by CD3, CD4, CD8, CD56 and CD19 immunohistochemistry. Blind evaluation (on a qualitative scale from + to ++++) is conducted on the following: the density of perivascular infiltrates, the distance of migration of leukocytes into the CNS parenchyma from blood vessels, and the degree of demyelination. The neuropathological assessments are focused on the optic nerve, lumbar cord and brainstem.

T lymphocytes = conditions: previous observation; cited from earlier work
multiple sclerosis = conditions: daily subcutaneous injections, 20 mg/injection; cited from earlier work
R-R MS = conditions: versus placebo, 9-month trial; cited from earlier work
EAE [2] = conditions: cited from earlier work
[3] = Day 0, 15-point scale, Copaxone 250 μg, minocycline 25 mg/kg i.p.

| Molecule | EAE clinical score, group average (ave) (severe EAE; Day 0) | EAE clinical score, individual mouse (severe EAE; [3]) | EAE clinical score, group average (ave) (severe EAE; Day 9) | EAE clinical score, individual mouse (severe EAE; Day 9) | EAE clinical score, group average (ave) (severe EAE; Day 10) | EAE clinical score, individual mouse (severe EAE; Day 10) | EAE clinical score, group average (ave) (severe EAE; Day 11) | EAE clinical score, individual mouse (severe EAE; Day 11) | EAE clinical score, group average (ave) (severe EAE; Day 12) | EAE clinical score, individual mouse (severe EAE; Day 12) | EAE clinical score, group average (ave) (severe EAE; Day 13) | EAE clinical score, individual mouse (severe EAE; Day 13) | EAE clinical score, group average (ave) (severe EAE; Day 14) | EAE clinical score, individual mouse (severe EAE; Day 14) | EAE clinical score, group average (ave) (severe EAE; Day 15) | EAE clinical score, individual mouse (severe EAE; Day 15) | EAE clinical score, group average (ave) (severe EAE; Day 16) | EAE clinical score, individual mouse (severe EAE; Day 16) | EAE clinical score, group average (ave) (severe EAE; Day 17) | EAE clinical score, individual mouse (severe EAE; Day 17) | other results |
| --- | --- | --- | --- | --- | --- | --- | --- | --- | --- | --- | --- | --- | --- | --- | --- | --- | --- | --- | --- | --- | --- |
| L-glutamic acid polymer with L-alanine, L-lysine and L-tyrosine, acetate (salt) [Copaxone ®] | 0 | 0 | 1 | 0 (7×) and 3 and 2 | 1 | 0 (5×) and 3 (2×) and 1 and 2 | 3 | 0 (3×) and 4 (2×) and 7 and 8 and 2 and 6 | 4 | 0 (2×) and 5 (2×) and 7 (2×) and 2 and 6 and 8 | 6 | 0 (2×) and 9 (3×) and 5 and 8 (2×) and 7 | 7 | 3 and 8 (5×) and 10 and 0 and 6 | 8 | 4 and 10 (6×) and 0 and 8 | 7 | 8 (4×) and 10 (2×) and 11 and 0 and 3 | 7 | 8 (2×) and 10 (2×) | EAE clinical score, group average (ave) (severe EAE; Day 18): 7; EAE clinical score, individual mouse (severe EAE; Day 18): 9 and 8 and 10; EAE clinical score, group average (ave) (severe EAE; Day 19): 7; EAE clinical score, individual mouse (severe EAE; Day 19): 7 and 8 and 12; EAE clinical score, group average (ave) (severe EAE; Day 20): 6; EAE clinical score, individual mouse (severe EAE; Day 20): 5 and 8 and 11; EAE clinical score, group average (ave) (severe EAE; Day 21): 6; EAE clinical score, individual mouse (severe EAE; Day 21): 7 (2×) and 9; EAE clinical score, group average (ave) (severe EAE; Day 22): 6; EAE clinical score, individual mouse (severe EAE; Day 22): 5 (2×) and 9; effect on clinical scores of EAE (severe EAE): slight benefit; Sum of Scores, group average (ave) (severe EAE): 75.56; Sum of Scores, individual mouse (severe EAE): 56 and 88 and 117 and 95 and 0 and 100 and 87 (2×) and 50; effect on disease severity (severe EAE): did not markedly decrease disease severity; effect on EAE severity / disease course (moderate EAE): slight attenuation of disease course; effect on disease severity (EAE [1]): significantly decreases disease severity; efficacy previously observed in the T cell transmigration assay (T lymphocytes): lack of efficacy; relapse rates, progression of disability, new MRI lesions, black holes (multiple sclerosis): reduce relapse rates; gadolinium-enhancing lesions progressing to persistent black holes (R-R MS): significantly fewer |
| CN(C)c1ccc(O)c2c1C[C@H]1C[C@H]3[C@H](N(C)C)C(O)=C(C(N)=O)C(=O)[C@@]3(O)C(O)=C1C2=O [Minocycline, [4S-(4∝,4a∝,5a∝,12a∝)]-4,7-bis(dimethylamino)-1,4,4a,5,5a,6,11,12a-octahydro-3,10,12,12a-tetrahydroxy-1,11-dioxo-2-naphthacenecarboxamide] | 0 | 0 | 4 | 3 (2×) and 4 (7×) | 4 | 4 (6×) and 6 (2×) and 3 | 6 | 8 and 5 and 6 (2×) and 7 (4×) and 4 | 7 | 7 (2×) and 6 and 9 and 8 (4×) and 4 | 8 | 7 and 9 (6×) and 4 and 10 | 9 | 8 (2×) and 10 (5×) and 4 and 9 | 9 | 11 and 10 (5×) and 9 and 4 and 6 | 9 | 11 and 10 (3×) and 8 (3×) and 9 and 3 | 8 | 10 (2×) and 8 (2×) | EAE clinical score, group average (ave) (severe EAE; Day 18): 8; EAE clinical score, individual mouse (severe EAE; Day 18): 11 (2×) and 6; EAE clinical score, group average (ave) (severe EAE; Day 19): 7; EAE clinical score, individual mouse (severe EAE; Day 19): 8 and 11 and 6; EAE clinical score, group average (ave) (severe EAE; Day 20): 7; EAE clinical score, individual mouse (severe EAE; Day 20): 8 and 11 and 5; EAE clinical score, group average (ave) (severe EAE; Day 21): 7; EAE clinical score, individual mouse (severe EAE; Day 21): 7 and 9 and 5; EAE clinical score, group average (ave) (severe EAE; Day 22): 7; EAE clinical score, individual mouse (severe EAE; Day 22): 9 (2×) and 5; effect on clinical scores of EAE (severe EAE): ineffective; Sum of Scores, group average (ave) (severe EAE): 102.3; Sum of Scores, individual mouse (severe EAE): 112 and 121 and 93 and 109 (2×) and 55 and 102 and 122 and 98; effect on disease severity (severe EAE): did not markedly decrease disease severity; effect on EAE severity / disease course (moderate EAE): did not elicit a clinical response; effect on disease severity (EAE [1]): significantly decreases disease severity; disease activity (EAE [2]; chronic relapsing remitting EAE): dramatically suppress disease activity; severity of disease (EAE [2]; mild EAE): attenuate the severity; course of disease (EAE [2]; severe EAE): delay the course |
